In ChEMBL document CHEMBL1201862, “PubChem BioAssay data set” (2004):
Calls of active or inactive are those of the source.

How the values were obtained:
[1] = molecular target: Glucose-6-phosphate 1-dehydrogenase (Homo sapiens, UniProt P11413); test: inhibition of Homo sapiens G6PD, dose series – biochemical, fluorescence, selectivity assay for P. falciparum G6PD inhibitor project, dose response (AID 504792); type: functional
[2] = test system: HEK293; test: cells; type: functional, cell-based; settings: Homo sapiens
[3] = molecular target: T1, Nuclear receptor subfamily 0 group B member 1 (Homo sapiens, UniProt P51843); test: Luminescence-based cell-based high throughput dose response assay for inhibitors of the orphan nuclear receptor subfamily 0, group B, member 1 (DAX1; NR0B1). [Related pubchem assays (depositor defined):AID504766, AID504790]; type: functional
T1 sequence (P51843 whole entry): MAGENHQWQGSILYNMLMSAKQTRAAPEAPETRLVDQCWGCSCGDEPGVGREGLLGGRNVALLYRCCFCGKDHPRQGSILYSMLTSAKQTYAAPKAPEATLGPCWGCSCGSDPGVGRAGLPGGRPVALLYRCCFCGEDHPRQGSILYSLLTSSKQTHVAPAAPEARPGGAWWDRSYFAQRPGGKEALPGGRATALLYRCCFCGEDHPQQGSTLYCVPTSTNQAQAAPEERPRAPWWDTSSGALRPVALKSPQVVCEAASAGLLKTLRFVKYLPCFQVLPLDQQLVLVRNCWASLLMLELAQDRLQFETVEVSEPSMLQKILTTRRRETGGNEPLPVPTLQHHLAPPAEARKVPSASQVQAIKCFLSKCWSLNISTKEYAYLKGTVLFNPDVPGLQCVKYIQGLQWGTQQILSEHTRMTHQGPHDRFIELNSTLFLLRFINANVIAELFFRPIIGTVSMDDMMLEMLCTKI

[4] = molecular target: T2, Cytochrome P450 2D6 (Homo sapiens, UniProt P10635);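 also: CYP2D6 member of a cytochrome P450 panel assay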
[5] = molecular target: Disintegrin and metalloproteinase domain-containing protein 17 (Homo sapiens, UniProt P78536); test: exosite inhibitors of ADAM17, dose response, biochemical (AID 743260)
[6] = molecular target: T3, Polyadenylate-binding protein 1 (Homo sapiens, UniProt P11940); test: MLLE domain peptide-binding blockers, IC50 – biochemical, fluorescence polarization, FITC-PAM2 peptide, dose response (AID 602259); type: functional; settings: read-out: IC50_Mean
[7] = molecular target: T3, Polyadenylate-binding protein 1; test: MLLE binding blockers, Cy5 peptide tracer – biochemical, fluorescence polarization, Cy5-PAM2 peptide, secondary, miRNA deadenylation inhibitor project, dose response (AID 602260); type: functional; settings: read-out: IC50_Mean
[8] = molecular target: T4, Calpain-2 catalytic subunit (Sus scrofa, UniProt P43367); test: m-calpain protease blockers, concentration series – biochemical, fluorogenic peptide substrate, dose response (AID 1420); type: functional
T4 sequence (P43367 whole entry): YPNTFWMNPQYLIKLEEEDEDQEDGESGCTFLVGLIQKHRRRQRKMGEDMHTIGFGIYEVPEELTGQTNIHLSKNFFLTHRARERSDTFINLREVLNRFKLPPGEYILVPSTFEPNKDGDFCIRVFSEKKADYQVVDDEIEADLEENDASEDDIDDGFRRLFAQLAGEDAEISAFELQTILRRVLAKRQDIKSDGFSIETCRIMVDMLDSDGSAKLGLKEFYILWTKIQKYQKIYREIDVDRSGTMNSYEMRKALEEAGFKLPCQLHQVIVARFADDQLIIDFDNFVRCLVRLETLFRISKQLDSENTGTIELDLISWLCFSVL

[9] = molecular target: T5, High affinity choline transporter 1 (Homo sapiens, UniProt Q9GZV3); test: human choline transporter blockers, potency – cell-based, 5-point CRC, membrane potential dye, dose response (AID 504840); type: functional
T5 sequence (Q9GZV3 whole entry): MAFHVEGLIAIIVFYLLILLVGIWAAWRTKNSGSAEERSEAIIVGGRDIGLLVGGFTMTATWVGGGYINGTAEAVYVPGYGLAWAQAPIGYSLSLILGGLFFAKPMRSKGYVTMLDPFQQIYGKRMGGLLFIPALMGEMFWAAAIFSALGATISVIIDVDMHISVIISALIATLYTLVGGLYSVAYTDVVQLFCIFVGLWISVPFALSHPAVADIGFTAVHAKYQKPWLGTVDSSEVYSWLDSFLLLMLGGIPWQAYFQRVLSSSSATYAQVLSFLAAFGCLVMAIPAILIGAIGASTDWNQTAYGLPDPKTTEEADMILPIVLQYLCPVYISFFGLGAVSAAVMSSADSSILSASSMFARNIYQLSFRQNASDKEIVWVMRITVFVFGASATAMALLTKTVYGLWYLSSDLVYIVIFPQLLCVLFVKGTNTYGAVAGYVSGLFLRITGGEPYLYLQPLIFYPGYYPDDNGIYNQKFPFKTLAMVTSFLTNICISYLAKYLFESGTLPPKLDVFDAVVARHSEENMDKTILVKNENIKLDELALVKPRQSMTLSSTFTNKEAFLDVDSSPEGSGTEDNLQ

[10] = molecular target: T6, Cytochrome P450 1A2 (Homo sapiens, UniProt P05177);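 also: PubChem cytochrome P450 panel assay, CYP1A2 panel member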
T6 sequence (P05177 whole entry): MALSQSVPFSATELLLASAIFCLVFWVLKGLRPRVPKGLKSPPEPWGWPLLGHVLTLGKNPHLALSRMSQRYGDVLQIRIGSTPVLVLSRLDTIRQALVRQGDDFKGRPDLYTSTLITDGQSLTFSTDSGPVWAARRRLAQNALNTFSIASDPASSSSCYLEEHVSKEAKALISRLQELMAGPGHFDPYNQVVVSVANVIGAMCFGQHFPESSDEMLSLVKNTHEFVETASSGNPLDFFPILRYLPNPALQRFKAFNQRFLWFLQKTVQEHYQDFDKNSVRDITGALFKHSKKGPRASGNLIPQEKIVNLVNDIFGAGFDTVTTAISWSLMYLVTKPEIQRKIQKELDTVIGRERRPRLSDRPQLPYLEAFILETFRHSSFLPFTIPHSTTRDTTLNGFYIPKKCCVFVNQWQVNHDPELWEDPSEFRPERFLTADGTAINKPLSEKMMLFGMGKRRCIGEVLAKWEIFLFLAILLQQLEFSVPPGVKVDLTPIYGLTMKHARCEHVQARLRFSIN

[11] = molecular target: T7, Cytochrome P450 3A4 (Homo sapiens, UniProt P08684)
[12] = molecular target: Voltage-gated inwardly rectifying potassium channel KCNH2 (Homo sapiens, UniProt Q12809); settings: Potency;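 also: confirmatory quantitative high-throughput screen measuring inhibition of hERG channel activity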
[13] = molecular target: T7, Cytochrome P450 3A4; settings: Potency
[14] = molecular target: Cytochrome P450 2C19 (Homo sapiens, UniProt P33261); test: Cytochrome panel assay with activity outcomes. Panel member name: p450-cyp2c19 Compounds with AC50 equal or less than 10 uM are considered active; type: functional; settings: read-out: AC50
[15] = molecular target: T2, Cytochrome P450 2D6; remark: listed apart in the source

T7 sequence (P08684 whole entry): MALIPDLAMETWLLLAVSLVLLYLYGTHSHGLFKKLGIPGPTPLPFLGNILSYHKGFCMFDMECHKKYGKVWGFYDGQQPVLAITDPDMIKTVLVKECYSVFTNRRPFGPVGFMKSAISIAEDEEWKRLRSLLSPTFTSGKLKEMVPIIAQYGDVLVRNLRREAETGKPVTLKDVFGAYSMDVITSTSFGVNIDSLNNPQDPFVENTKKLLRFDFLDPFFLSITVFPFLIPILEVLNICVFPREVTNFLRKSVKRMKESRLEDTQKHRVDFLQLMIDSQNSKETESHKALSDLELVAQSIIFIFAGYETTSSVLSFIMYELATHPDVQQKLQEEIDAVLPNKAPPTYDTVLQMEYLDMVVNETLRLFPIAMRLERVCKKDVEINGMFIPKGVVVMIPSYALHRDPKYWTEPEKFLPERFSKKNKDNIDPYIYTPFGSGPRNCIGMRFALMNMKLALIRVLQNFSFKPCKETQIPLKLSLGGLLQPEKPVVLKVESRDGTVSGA
T2 sequence (P10635 whole entry, the tested form may be a part): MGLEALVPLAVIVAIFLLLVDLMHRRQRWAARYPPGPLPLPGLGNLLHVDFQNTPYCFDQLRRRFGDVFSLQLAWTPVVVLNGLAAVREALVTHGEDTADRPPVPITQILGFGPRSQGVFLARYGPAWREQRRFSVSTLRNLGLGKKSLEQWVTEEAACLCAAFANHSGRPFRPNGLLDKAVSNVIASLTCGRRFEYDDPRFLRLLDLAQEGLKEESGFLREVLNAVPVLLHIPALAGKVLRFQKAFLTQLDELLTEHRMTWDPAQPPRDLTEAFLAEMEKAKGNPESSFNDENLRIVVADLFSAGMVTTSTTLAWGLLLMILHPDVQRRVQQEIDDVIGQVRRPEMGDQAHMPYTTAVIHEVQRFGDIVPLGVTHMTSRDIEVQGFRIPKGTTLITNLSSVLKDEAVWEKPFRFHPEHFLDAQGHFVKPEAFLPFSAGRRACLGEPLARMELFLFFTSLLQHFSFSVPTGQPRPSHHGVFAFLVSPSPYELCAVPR
T3 sequence (P11940 whole entry, the tested form may be a part): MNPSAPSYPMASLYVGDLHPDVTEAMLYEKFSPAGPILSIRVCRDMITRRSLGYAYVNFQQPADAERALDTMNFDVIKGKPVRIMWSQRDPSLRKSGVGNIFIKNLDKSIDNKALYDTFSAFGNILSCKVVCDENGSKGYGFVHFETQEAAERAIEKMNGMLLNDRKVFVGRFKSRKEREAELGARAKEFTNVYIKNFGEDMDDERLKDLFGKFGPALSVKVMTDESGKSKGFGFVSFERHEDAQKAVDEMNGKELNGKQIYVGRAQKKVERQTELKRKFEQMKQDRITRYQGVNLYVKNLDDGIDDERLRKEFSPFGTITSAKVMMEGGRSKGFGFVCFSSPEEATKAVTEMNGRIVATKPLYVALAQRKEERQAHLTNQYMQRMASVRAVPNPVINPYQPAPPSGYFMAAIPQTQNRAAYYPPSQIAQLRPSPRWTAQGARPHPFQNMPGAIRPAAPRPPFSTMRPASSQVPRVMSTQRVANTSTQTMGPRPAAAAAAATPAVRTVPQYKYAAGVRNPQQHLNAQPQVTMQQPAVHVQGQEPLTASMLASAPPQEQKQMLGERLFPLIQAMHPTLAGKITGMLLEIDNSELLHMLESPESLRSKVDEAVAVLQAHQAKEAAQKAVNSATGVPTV
Chain of Glucose-6-phosphate 1-dehydrogenase (P11413 whole entry): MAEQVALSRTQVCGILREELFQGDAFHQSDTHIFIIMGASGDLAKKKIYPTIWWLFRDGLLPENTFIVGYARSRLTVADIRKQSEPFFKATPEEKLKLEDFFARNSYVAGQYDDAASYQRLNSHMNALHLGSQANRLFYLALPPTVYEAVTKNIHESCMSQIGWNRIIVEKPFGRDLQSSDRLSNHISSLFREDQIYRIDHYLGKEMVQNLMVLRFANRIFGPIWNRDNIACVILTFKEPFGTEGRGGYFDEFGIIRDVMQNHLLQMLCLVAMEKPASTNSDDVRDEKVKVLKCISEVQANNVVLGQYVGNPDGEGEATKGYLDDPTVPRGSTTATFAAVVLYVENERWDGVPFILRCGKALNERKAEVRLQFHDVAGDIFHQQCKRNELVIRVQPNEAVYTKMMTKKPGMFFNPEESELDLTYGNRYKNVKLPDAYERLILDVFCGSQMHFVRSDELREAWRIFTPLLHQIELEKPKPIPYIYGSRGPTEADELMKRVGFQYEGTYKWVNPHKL
Chain of Voltage-gated inwardly rectifying potassium channel KCNH2 (Q12809 whole entry): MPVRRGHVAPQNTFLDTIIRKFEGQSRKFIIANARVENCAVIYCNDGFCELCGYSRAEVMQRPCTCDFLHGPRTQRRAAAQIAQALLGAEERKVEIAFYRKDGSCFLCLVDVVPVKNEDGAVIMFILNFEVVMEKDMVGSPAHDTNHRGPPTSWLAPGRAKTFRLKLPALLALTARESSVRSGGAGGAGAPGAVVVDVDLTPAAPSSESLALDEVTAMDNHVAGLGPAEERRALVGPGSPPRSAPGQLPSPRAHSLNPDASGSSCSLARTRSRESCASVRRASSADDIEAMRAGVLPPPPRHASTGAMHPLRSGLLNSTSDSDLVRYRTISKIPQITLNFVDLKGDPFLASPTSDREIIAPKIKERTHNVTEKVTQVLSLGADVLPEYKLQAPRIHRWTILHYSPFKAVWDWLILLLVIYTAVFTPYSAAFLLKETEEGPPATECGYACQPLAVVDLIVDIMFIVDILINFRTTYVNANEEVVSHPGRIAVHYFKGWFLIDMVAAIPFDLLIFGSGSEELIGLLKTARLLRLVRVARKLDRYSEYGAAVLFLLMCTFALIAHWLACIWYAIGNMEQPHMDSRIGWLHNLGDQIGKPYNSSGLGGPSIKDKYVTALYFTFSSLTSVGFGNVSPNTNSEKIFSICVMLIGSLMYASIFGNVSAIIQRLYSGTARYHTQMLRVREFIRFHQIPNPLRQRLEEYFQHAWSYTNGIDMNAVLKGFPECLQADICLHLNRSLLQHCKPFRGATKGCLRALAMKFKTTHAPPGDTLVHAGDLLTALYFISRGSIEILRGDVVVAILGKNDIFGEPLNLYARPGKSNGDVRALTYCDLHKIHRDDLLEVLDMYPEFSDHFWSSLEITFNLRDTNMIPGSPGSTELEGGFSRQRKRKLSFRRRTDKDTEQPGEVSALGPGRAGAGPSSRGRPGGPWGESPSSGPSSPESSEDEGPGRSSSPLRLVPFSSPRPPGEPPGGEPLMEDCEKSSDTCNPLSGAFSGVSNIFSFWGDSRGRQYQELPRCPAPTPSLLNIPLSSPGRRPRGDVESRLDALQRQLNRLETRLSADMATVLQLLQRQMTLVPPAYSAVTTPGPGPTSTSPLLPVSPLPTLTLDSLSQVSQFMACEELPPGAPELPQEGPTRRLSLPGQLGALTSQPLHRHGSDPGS
Chain of Disintegrin and metalloproteinase domain-containing protein 17 (P78536 whole entry, the tested form may be a part): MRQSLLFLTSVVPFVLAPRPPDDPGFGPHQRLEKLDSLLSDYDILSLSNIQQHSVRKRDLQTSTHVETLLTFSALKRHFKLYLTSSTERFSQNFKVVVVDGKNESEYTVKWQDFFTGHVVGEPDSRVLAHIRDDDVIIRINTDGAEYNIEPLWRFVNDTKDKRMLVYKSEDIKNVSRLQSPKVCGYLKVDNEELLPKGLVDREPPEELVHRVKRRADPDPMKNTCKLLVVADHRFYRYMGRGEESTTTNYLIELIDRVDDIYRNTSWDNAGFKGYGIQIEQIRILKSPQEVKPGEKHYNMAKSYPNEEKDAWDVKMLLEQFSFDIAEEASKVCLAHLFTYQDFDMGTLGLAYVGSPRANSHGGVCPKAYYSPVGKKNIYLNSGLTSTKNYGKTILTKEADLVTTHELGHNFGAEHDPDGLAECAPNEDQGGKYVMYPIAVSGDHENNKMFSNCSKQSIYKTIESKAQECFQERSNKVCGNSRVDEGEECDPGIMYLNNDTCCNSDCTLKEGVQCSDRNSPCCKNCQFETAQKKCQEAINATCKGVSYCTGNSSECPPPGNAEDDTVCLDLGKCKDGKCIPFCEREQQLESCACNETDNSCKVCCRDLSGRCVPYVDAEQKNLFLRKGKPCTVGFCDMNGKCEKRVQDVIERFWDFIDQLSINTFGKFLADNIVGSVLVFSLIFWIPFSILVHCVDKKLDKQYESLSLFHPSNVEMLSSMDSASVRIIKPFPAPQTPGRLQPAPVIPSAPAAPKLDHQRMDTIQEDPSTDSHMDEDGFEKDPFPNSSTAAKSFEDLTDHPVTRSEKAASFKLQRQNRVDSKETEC
Chain of Cytochrome P450 2C19 (P33261 whole entry): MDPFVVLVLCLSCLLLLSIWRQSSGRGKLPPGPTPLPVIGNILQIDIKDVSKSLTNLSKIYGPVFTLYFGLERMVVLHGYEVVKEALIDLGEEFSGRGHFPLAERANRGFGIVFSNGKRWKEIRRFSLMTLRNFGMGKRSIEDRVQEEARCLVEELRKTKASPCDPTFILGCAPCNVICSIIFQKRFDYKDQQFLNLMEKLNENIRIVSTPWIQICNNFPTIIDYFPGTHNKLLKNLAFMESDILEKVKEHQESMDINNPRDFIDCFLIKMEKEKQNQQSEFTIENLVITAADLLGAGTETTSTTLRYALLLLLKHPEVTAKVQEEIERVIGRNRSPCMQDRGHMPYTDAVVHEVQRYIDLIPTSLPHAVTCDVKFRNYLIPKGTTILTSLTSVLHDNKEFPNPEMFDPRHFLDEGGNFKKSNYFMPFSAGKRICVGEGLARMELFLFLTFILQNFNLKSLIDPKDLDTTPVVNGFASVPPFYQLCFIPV

Which IC50 [1] does the source give for `N#Cc1ccc(Oc2cccc3cccnc23)c([N+](=O)[O-])c1` here?
The IC50 was > 80 µM (inactive).

With `COCCCNC(=O)c1ccc(CN2CCc3ccccc3C2)cc1` as the compound, how does the IC50 [2] read?
The IC50 was > 67.5 µM (inactive).

What about the IC50 [3] of the same compound?
The IC50 was > 67.5 µM (inactive).

Which IC50 [1] does the source give for `COc1ccc(CN(C)S(=O)(=O)c2nnc(NC(=O)c3ccc(C)cc3)s2)cc1OC` here?
Its IC50 is 46 µM (inactive).

With `COc1cccc(CN2C(=O)N(C(C)C)C(N(O)C(=O)NC(C)C)C2(C)C)c1OC` (stereo not given) as the compound, how does the AC50 [4] read?
The AC50 was “inconclusive”.

`S=c1[nH]nc(-c2sccc2OCc2ccc(Cl)cc2Cl)[nH]1` was tested. Which IC50 [5] did it give?
The IC50 was > 69.5 µM (inactive).

What about the IC50 [6] of the same compound?
Its IC50 is > 66 µM (inactive).

What about the IC50 [7] of the same compound?
The IC50 was > 66 µM (inactive).

What about the IC50 [8] of the same compound?
The IC50 was 10.1 µM (not active).

What about the IC50 [9] of the same compound?
The IC50 was 11.5 µM (active).

What does the source list for `O=C(/C=C/c1ccc2c(c1)OCCO2)c1ccc(O)cc1`?
IC50 [2]: > 2.5 µM (active); IC50 [3]: > 67.6 µM (inactive)

Which AC50 [10] does the source give for `O=C(Oc1ccccc1)N1CCC2(CC1)CCN(c1cccc(-c3ccccc3)c1)CC2` here?
Its AC50 is 12.6 µM (inconclusive).

What about the AC50 [11] of the same compound?
Its AC50 is “inconclusive”.

With `Nc1ccccc1C(=O)OCCc1ccccc1` as the compound, how does the AC50 [12] read?
Its AC50 is 39.8 µM (inconclusive).

What about the AC50 [13] of the same compound?
The AC50 was 12.6 µM (inconclusive).

For `COC(=O)N1CCC2(CC1)CCN(c1ccccn1)CC2`, which AC50 [14] is on record?
Its AC50 is 10 µM (inconclusive).

And the AC50 [15]?
Its AC50 is 10 µM (inconclusive).

And the AC50 [11]?
Its AC50 is “inconclusive”.

How did the AC50 [4] turn out when `CCc1c(C)[nH]c2c1C(=O)[C@H](CN1CCOCC1)CC2.Cl` [MOLINDONE HYDROCHLORIDE] was run?
The AC50 was “inactive”.
